Results published in BindingDB's records for doi:10.1021/jm0607451 (Wyeth Research, 2006).

Molecular target: Pepsin A-4 (Homo sapiens, UniProt P0DJD7)
Experiment: FRET-based Peptide Cleavage Assay
Details: pH 4.5; 22 °C

Sequence of Pepsin A-4 (P0DJD7 whole entry): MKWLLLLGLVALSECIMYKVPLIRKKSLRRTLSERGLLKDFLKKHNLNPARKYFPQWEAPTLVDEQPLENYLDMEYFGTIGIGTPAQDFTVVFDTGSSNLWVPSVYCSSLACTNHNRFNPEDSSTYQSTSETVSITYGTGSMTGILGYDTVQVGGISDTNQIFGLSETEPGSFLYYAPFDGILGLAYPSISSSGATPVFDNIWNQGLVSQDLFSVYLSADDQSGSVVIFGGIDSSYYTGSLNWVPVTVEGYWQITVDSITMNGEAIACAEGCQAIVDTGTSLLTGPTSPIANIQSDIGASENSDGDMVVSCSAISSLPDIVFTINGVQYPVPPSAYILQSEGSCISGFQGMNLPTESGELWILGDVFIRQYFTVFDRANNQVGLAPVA

SMILES: CCCOc1ccc(-c2ccc(-c3ccccc3Cl)n2CC(=O)NC(=N)NCCCO)cc1 [N-[(1Z)-amino[(3-hydroxypropyl)amino]methylidene]-2-[2-(2-chlorophenyl)-5-(4-propoxyphenyl)-1H-pyrrol-1-yl]acetamide]
- IC50: > 50 µM

SMILES: NC(N)=NC(=O)Cn1c(-c2ccccc2)ccc1C12CC3CC(CC(C3)C1)C2 [2-[2-(adamantan-1-yl)-5-phenyl-1H-pyrrol-1-yl]-N-(diaminomethylidene)acetamide]
- IC50: > 50 µM

SMILES: CC(=O)c1ccc(Oc2ccc(-c3ccc(-c4ccccc4Cl)n3CC(=O)NC(=N)N)cc2)cc1 [2-[2-(2-chlorophenyl)-5-[4-(4-acetylphenoxy)phenyl]-1H-pyrrol-1-yl]-N-(diaminomethylidene)acetamide]
- IC50: > 50 µM

SMILES: N/C(=N/C(=O)Cn1c(-c2ccccc2)ccc1C12CC3CC(CC(C3)C1)C2)NCCCO [2-[2-(adamantan-1-yl)-5-phenyl-1H-pyrrol-1-yl]-N-[(1Z)-amino[(3-hydroxypropyl)amino]methylidene]acetamide]
- IC50: > 50 µM
